{
  "source": "patent US9709557B2",
  "about": "“Anthraquinone based near IR emitting compounds and uses thereof” (LIFE TECHNOLOGIES CORPORATION, priority 2008, dated 2017)",
  "key": {"[1]": {"system": "Live Jurkat cells", "assay": "DNA staining of live cells treated with RNase (Example 37)", "type": "cell-based, human", "conditions": "5 μM and 10 μM, 37° C. or room temperature, 30 min", "procedure": "Live Jurkat cells (human T-lymphocyte) were stained with Compound 9 with and without RNase treatment to assess DNA selectivity of the compound. Live Jurkat cells were suspended at 5×10^5 cells/ml in each RPMI media with 10% FBS. The dye was added to each of one mL cell suspensions at concentrations 5 μM and 10 μM. Duplicate conditions (dye concentration and incubation temperature) were tested. RNase was added to one test and incubated along with the dye. The other test was left untreated (no RNase present). The samples were incubated at 37° C. or room temperature for 30 minutes while protected from light. Cells were run through a Becton Dickinson (BD) LSRII Flow Cytometer, as described in Example 36."}, "[2]": {"system": "Live Jurkat cells", "assay": "DNA staining of live cells, 15 minute incubation (Example 46)", "type": "cell-based, human", "conditions": "2.5, 5, 10 μM, 37° C., 15 min; 488 and 633 nm lasers, 695/40", "procedure": "Compound 9 is diluted as a 5 mM concentration in DMSO. Live Jurkat cells are suspended at 5×10^5 cells/ml in RPMI media with 10% Fetal Bovine Serum (FBS). Compound 9 was is added to each of one mL cell suspensions at concentrations 2.5 μM, 5 μM, 10 μM and then incubated at 37° C. for 15 minutes while protected from light. Cells are run through the Becton Dickinson (BD) LSRII Flow Cytometer. Forward Scatter (FS) vs Side Scatter (SS) dual parameter plot is used to gate main cell population. Fluorescence is collected using two lasers: the 488 nm excitation laser with 695/40 bandpass emission filter, and using the 633 nm excitation laser with 695/40 bandpass emission filter. Collection of 10,000 events gated on the main population of cells was performed using a flow rate of ˜200 events/second. […] A typical DNA cell cycle histogram was generated, showing G0/G1 phase, S phase, and G2/M phase, as obtained on the live cell gate, with all concentrations of the compound."}, "[3]": {"system": "Live Jurkat cells", "assay": "Evaluation of cell health after DNA staining, ImageStream imaging flow cytometer (Example 39)", "type": "cell-based", "conditions": "5 μM, 37° C., 30 min", "from_the_text": "An ImageStream multispectral imaging flow cytometer is used to evaluate the live, apoptotic and mitotic rate of cycling Jurkat cells labeled with a compound of the invention (e.g., Compound 9 or a salt thereof). The platform produces high resolution brightfield, darkfield, and fluorescence images of cells prepared in suspension. IDEA analysis software I is used to quantify morphometric and photometric parameters for each cell based on the imaged collected. This technology combines the quantitative power of large sample sizes common to flow cytometry with the high information content present in microscopic images.\nLive Jurkat cells are suspended at 5×10^5 cells/ml in each RPMI media with 10% FBS. The compound (in 5 mM DMSO) is added at a concentration of 5 μM and then the cells are incubated at 37° C. for 30 minutes while protected from light before acquiring on the ImageStream cytometer using 658 nm excitation and >660 nm emission. Apoptotic, mitotic, and interphase Jurkat cells are distinguished from each other using a combination of scatter, DNA intensity, and morphology-based parameters. Apoptotic cells with high laser scatter properties are gated on the Mean Pixel SSC histogram. Low scatter apoptotic events with low DNA content or textured nuclei are identified on the dye intensity versus bright detail intensity plot. […]"}, "[4]": {"system": "Live Jurkat cells", "assay": "DNA staining of live cells, 15 minute incubation, MODFIT analysis (Example 47)", "type": "cell-based, human", "conditions": "1.25, 2.5, 5, 10 μM, 37° C. and room temperature, 15 min", "procedure": "Live Jurkat cells are suspended at 5×10^5 cells/ml in RPMI media Compound 9 is added to each of one mL cell suspensions at final concentrations 1.25 μM, 2.5 μM, 5 μM, and 10 μM and then incubated at 37° C. and room temperature for 15 minutes while protected from light. Cells are run through the Becton Dickinson (BD) LSRII Flow Cytometer. Forward Scatter (FS) versus Side Scatter (SS) dual parameter plot is used to gate main cell population. Fluorescence is collected using two lasers: the 488 nm excitation laser with 695/40 bandpass emission filter, and using the 633 nm excitation laser with 695/40 bandpass emission filters, collecting 10,000 events at flow rate of ˜200 events/second. The data is further analyzed using MODFIT LT Flow Cytometry Modeling Software from Verity Software House, Inc. to look at ratio of G2/G1 and the % CV of G1 phase."}, "[5]": {"system": "Live Jurkat cells", "assay": "DNA staining of live cells (diluted samples), cell cycle analysis by flow cytometry (Example 38)", "type": "cell-based, human", "procedure": "Aliquots of a compound of the invention (e.g., Compound 9 or a salt thereof) are diluted to a concentration of 5 mM in de-ionized water (DI) or in DMSO. Live Jurkat cells are suspended at 5×10^5 cells/ml in each RPMI media with 10% FBS. Compound from each solution (DI and DMSO) is added to each of one mL cell suspensions at a concentration 5 μM and then incubated at 37° C. for 30 minutes while protected from light. Cells are run through a Becton Dickinson (BD) LSRII Flow Cytometer. Forward Scatter (FS) versus Side Scatter (SS) dual parameter plot is used to gate main cell population. Fluorescence is collected using two lasers: the 488 nm excitation laser with 695/40, and 780/60 bandpass emission filter, and using the 633 nm excitation laser with 780/60, 710/50, and 660/20 bandpass emission filters. Fluorescence is also collected with the 488 nm laser and the 530/30 and 575/26 bandpass emission filters to observe for any fluorescence spillover in these detectors. Collection of at least 10,000 events is performed at a flow rate of ˜200 events/second. The data is analyzed to evaluate the ratio of G2/G1 and the % CV of G1 phase, as described herein. Compound 9 was evaluated using the described procedures and was effective as a DNA stain for use in DNA cell cycle analysis. The compound was excited by both lasers with emission in the far red and near-IR regions of the spectrum. […] Table 2 summarizes data for live Jurkat cells suspended in RPMI media+10% FBS treated with 5 μM Compound 9 (as a 5 mM DMSO or DI solution)."}},
  "data": [
    {"smiles": "CN(C)CCNC(=O)CNc1ccc(O)c2c1C(=O)c1c(O)ccc(N)c1C2=O", "note": "[Compound 9]", "values": [
      {"measurement": "DNA selectivity, staining with and without RNase", "setting": "[1]", "value": "DNA selective"},
      {"measurement": "DNA content cell cycle staining", "setting": "[2]", "value": "demonstrated staining for DNA content cell cycle"},
      {"measurement": "cells dead following incubation with the dye", "setting": "[3]", "value": 7.1, "unit": "%"},
      {"measurement": "mitotic cells as share of the live cell population", "setting": "[3]", "value": 1.9, "unit": "%"},
      {"measurement": "% CV of G1-phase", "setting": "[4]", "value": "< 8", "unit": "%"},
      {"measurement": "G2/G1 ratio", "setting": "[5]; 5 μM from 5 mM DI solution, 488 + 695/40", "value": 1.89},
      {"measurement": "G2/G1 ratio", "setting": "[5]; 5 μM from 5 mM DI solution, 633 + 710/50", "value": 1.85},
      {"measurement": "G2/G1 ratio", "setting": "[5]; 5 μM from 5 mM DMSO solution, 488 + 695/40", "value": 1.88},
      {"measurement": "G2/G1 ratio", "setting": "[5]; 5 μM from 5 mM DMSO solution, 633 + 710/50", "value": 1.85},
      {"measurement": "% CV of G1-phase", "setting": "[5]; 5 μM, all samples and conditions, MODFIT", "value": "< 8", "unit": "%"}
    ]}
  ]
}
